Experimental data taken from article PMC6722837, “Multiple Modulation of Acid-Sensing Ion Channel 1a by the Alkaloid Daurisoline” (Biomolecules, 2019).

Molecular target: T1, ASIC1a (acid-sensing ion channel 1a) (Rattus norvegicus, UniProt P55926)
T1 construct: gene Asic1; rat ASIC1a isoform expressed in Xenopus laevis oocytes
T1 sequence (P55926 1-526): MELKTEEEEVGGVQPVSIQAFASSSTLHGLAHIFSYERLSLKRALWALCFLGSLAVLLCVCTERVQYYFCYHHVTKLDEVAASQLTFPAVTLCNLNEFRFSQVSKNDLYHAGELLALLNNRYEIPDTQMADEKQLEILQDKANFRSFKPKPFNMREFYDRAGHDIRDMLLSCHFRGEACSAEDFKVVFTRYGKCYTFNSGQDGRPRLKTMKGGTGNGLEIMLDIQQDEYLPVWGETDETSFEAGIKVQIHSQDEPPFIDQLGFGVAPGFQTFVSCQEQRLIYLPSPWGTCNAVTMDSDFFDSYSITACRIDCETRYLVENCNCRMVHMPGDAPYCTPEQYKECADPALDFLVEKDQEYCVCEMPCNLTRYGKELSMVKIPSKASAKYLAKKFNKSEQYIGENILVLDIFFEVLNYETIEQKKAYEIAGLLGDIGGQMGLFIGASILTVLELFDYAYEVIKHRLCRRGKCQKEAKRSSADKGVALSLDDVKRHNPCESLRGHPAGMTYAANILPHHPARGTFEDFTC
Test: two-electrode voltage clamp in Xenopus oocytes; second peak of the pH […].5-evoked current at conditioning pH […]
Format: cell-based

Structure (SMILES): COc1cc2c(cc1O)[C@@H](Cc1ccc(O)c(Oc3ccc(C[C@@H]4c5cc(OC)c(OC)cc5CCN4C)cc3)c1)N(C)CC2 [DAU, daurisoline]
- EC50: 23 ± 3 µM
